Results from patent US7501113B2, “Aerosol formulations and aerosol delivery of buprenorphine” (priority 2003, dated 2009).
Values joined by “and” are separate entries in the source; they are usually repeats but may differ in a detail not shown here. Identical values can stand only once. Like-named read-outs stand apart in the source and are kept apart here.

Key:
[1] = Aerosol particle size determination, 10-stage MOUDI at 30 L/min with USP throat; format: physicochemical; details: for MMAD / Material Balance / Throat Deposition / Wall Losses / Throat Depositions: 5 mg/sec
Protocol: Aerosol particle size was determined using the 10-stage MOUDI operated at 30 L/min. The sample foils were placed in beakers, 10 mL of sample solvent was added, and the beakers swirled thoroughly. For the USP throat, 10 mL of sample solvent was added and shaken thoroughly. Wall losses were assessed by washing the MOUDI walls with a Kimwipe dipped in sample solvent. The same 10 mL of mobile phase was used to wash the walls of all the stages. The collected samples were analyzed.
(§1) Aerosol particle size was determined using the 10-stage MOUDI operated at 30 L/min. […] For the USP throat, 5 mL of sample solvent was added and shaken thoroughly. Wall losses were assessed by washing the MOUDI walls with a Kimwipe dipped in sample solvent. The same sample solvent was used to wash the walls of all the stages. The collected samples were analyzed using the assay method.
Aerosol particle size was determined using the 10-stage MOUDI operated at 30 L/min. For MOUDI runs 1-4, the sample foils were placed in beakers, 5 mL of sample solvent was added, and the beakers swirled thoroughly. For the USP throat, 5 mL of sample solvent was added and shaken thoroughly. Wall losses were assessed by washing the MOUDI walls with a Kimwipe dipped in sample solvent. The same 5 mL of sample solvent was used to wash the walls of all the stages. The collected samples were analyzed using the assay method. For MOUDI runs 5-9, the procedure was the same as above except distilled deionized water was used in place of the sample solvent. This was done to allow for simultaneous PG particle size analysis. Two actuations were used for all MOUDI runs with the exception of MOUDI runs 1 and 7.
as §1, with “10” for “5”
as §1

[2] = Emitted dose and fine particle fraction; format: physicochemical; details: formulation % w/v: buprenorphine 0.2, buspirone 2.0, cyclobenzaprine 2.0, triazolam 0.1, zolpidem 0.2; for Avg. Emitted Dose per Actuation: 10 second actuations, average of n=3-5 runs; for Avg. FPF: fine particle fraction = percent of total dose collected less than 5.6 microns, n=3-5 runs
[3] = 2 % in PG
Protocol: (§2) Buspirone was dissolved in acidic and basic solutions and heated to 50 degrees Celsius for 1 hour to promote acid and base catalyzed hydrolysis. Buspirone was also subjected to peroxide with heating to 50 degrees Celsius for 1 hour to promote oxidation. As a final stability check, solid buspirone was subjected to heating with a differential scanning calorimeter. Conditions were optimized to produce thermal degradation products by heating to 350 degrees Celsius.
(§3) Dose capture determinations were conducted (Table 1). For dose capture runs 1-6, the device was actuated once, the aerosol collected in acidified water, diluted to 40 mL. Runs 7-12 were performed as above, except distilled de-ionized water was used instead of acidified water. For runs 13-33, the device was actuated 4 times, the aerosol was collected in 8 mL of sample solvent, and analyzed for buspirone and degradation products using the “stability indicating” assay. Intact buspirone was calculated. The extent of degradation was evaluated by assuming that the degradation products had similar extinction coefficients as the parent at the wavelength of interest.
(§4) After evaluation of the data, it was determined that buspirone should be thermally stressed with a DSC to produce a degradation profile thought to be more representative of buspirone degradation after aerosolization via the CAG. In doing so, thermal degradation products were produced under the conditions stated above. This provided an indication of retention times for potential degradation products of buspirone after aerosolization using the CAG.
(§5) Buprenorphine was subjected to heating with a differential scanning calorimeter.
(§6) Dose capture determinations were conducted.
(§7) Conditions were optimized to produce thermal degradation products by heating to 350 degrees Celsius.
(§8) Dose capture determinations were conducted (Table 6). For dose capture runs 1-3, the device was actuated once, the aerosol collected in 10 mL of sample solvent and analyzed using the “stability indicating” method. Runs 4-9 were performed as above except the device was actuated twice and collected in 10 mL of sample solvent. […] The extent of degradation was evaluated by assuming that the degradation products had similar extinction coefficients as the parent at the wavelength of interest.
(§9) Thermal degradation products were produced under the conditions stated above.
(§10) Conditions were optimized to produce thermal degradation products by heating to 300 degrees Celsius.
(§11) Dose capture determinations were conducted. […] The extent of degradation was evaluated by assuming that the degradation products had similar extinction coefficients as the parent at the wavelength of interest.

[4] = 5 mg/sec
Protocol: Sham determinations were performed for each set of experiments to determine an “expected” amount of active per capillary aerosol generator (CAG) activation. This was performed by running the equipment at a target resistance of 0.2 ohms, which pumped out the solution of buspirone in PG as a liquid instead of an aerosol. The result was collected on a Kimwipe which was placed into sample solvent and sonicated. This process was performed in triplicate. Two solution concentrations of about 0.5% and about 2% of buspirone in PG were prepared.
as §3
The result was collected on a Kimwipe, placed into sample solvent and sonicated. This process was performed in triplicate and was analyzed with other analytical samples.
as §6
Sham determinations were performed for each set of experiments to determine an “expected” amount of active per CAG activation. […] This was collected on a Kimwipe which was placed into sample solvent and sonicated. The process was performed in triplicate and was analyzed with other analytical samples.
as §8
Sham determinations were performed for each set of experiments to determine an “expected” amount of active per CAG activation. […] This was collected on a Kimwipe which was placed into sample solvent and sonicated. This process was performed in triplicate and was analyzed with other analytical samples.
as §11
Sham determinations were performed for each set of experiments to determine an “expected” amount of active per CAG activation. This was performed by running the equipment at a target resistance of 0.2 ohms. […] This was collected on a Kimwipe which was placed into sample solvent and sonicated. This process was performed in triplicate and was analyzed with other analytical samples.

[5] = Degradation determination after aerosolization (stability indicating assay); details: zolpidem 0.2% in PG, target resistance 0.600 ohms, runs 5-9
Protocol: as §2, §3, §4, §5, §6, §7, §8, §9, §10, §11

[6] = buspirone 0.5% in PG, target resistance 0.600 ohms
[7] = buspirone 0.5% in PG, target resistance 0.610 ohms, monohydrochloride
[8] = buspirone 2.0% in PG, target resistance 0.590 ohms
[9] = buspirone 2.0% in PG, target resistance 0.595 ohms
[10] = buspirone 2.0% in PG, target resistance 0.600 ohms, monohydrochloride
[11] = buspirone 2.0% in PG, target resistance 0.605 ohms, runs 11-15, listed as buspirone, monohydrochloride
[12] = buspirone 2.0% in PG, target resistance 0.605 ohms, runs 11-15, monohydrochloride
[13] = buspirone 2.0% in PG, target resistance 0.610 ohms
[14] = cyclobenzaprine 2.0% in PG, target resistance 0.595 ohms, 1 actuation
[15] = triazolam 0.1% in PG, target resistance 0.590 ohms
[16] = triazolam 0.1% in PG, target resistance 0.595 ohms
[17] = triazolam 0.1% in PG, target resistance 0.600 ohms
[18] = triazolam 0.1% in PG, target resistance 0.605 ohms, runs 5-9
[19] = zolpidem 0.2% in PG, target resistance 0.590 ohms, 1 actuation
[20] = zolpidem 0.2% in PG, target resistance 0.600 ohms, 1 actuation

Cl.O=C1CC2(CCCC2)CC(=O)N1CCCCN1CCN(c2ncccn2)CC1 [Buspirone, 8-[4-[4-(2-pyrimidinyl)-1-piperazinyl]butyl]-8-azaspiro[4,5]decane-7,9-dione monohydrochloride]
MMAD [1, 6]: 0.31 microns | Material Balance [1, 6]: 100% | Throat Deposition [1, 6]: 7% | Wall Losses [1, 6]: 2% | Wall Losses ([1]; buspirone 0.5% in PG, target resistance 0.610 ohms): 4% | MMAD [1, 7]: 0.30 microns and 0.47 microns and 0.32 microns and 0.29 microns | Throat Deposition [1, 7]: 10% and 3% and 6% and 4% | recovered buspirone found on the throat ([1]; buspirone 2.0% in PG, energies approximately 77 J, runs 8 and 10): greater than 40% | MMAD [1, 8]: 0.54 microns | Material Balance [1, 8]: 11% | Throat Deposition [1, 8]: 44% | Wall Losses [1, 8]: 6% | MMAD [1, 9]: 0.46 microns | Material Balance [1, 9]: 91% | Throat Deposition [1, 9]: 44% | Wall Losses [1, 9]: 1% | MMAD [1, 10]: 0.30 microns and 0.48 microns | Material Balance [1, 10]: 100% and 98% | Wall Losses [1, 10]: 2% and 4% | MMAD [1, 11]: approximately 0.30 microns | Material Balance [1, 11]: exceeded 100% | Throat Deposition [1, 11]: less than 5% | MMAD [1, 12]: 0.31 microns and 0.30 microns and 0.29 microns and 0.32 microns | Material Balance [1, 12]: 105% and 108% and 102% and 107% and 111% | Throat Deposition [1, 12]: 4% and 1% and 3% and 2% | Wall Losses [1, 12]: 4% and 3% and 9% | MMAD [1, 13]: 0.30 microns | Material Balance [1, 13]: 98% | Throat Deposition [1, 13]: 14% | Wall Losses [1, 13]: 1% | Avg. Emitted Dose per Actuation [2]: 1010.44 µg | Avg. FPF [2]: 91.60 % of Emitted | average degradation of the active [3]: 0.25% | major degradation peak, share of degradation observed [3]: approximately 0.09% | other 8 degradation peaks, each [3]: approximately 0.02% | Dose Capture ([4]; buspirone 2.0% in PG, target resistance 0.595 ohms, runs 13-15, mean): 102^1% | Dose Capture ([4]; buspirone 2.0% in PG, target resistance 0.600 ohms, runs 24-28, mean): 105^3% | Dose Capture ([4]; buspirone 2.0% in PG, target resistance 0.605 ohms, about 90 J, runs 29-33, mean, listed as buspirone, monohydrochloride): 104% | Dose Capture ([4]; buspirone 2.0% in PG, target resistance 0.605 ohms, about 90 J, runs 29-33, mean, monohydrochloride): 104^3% | Dose Capture ([4]; buspirone 2.0% in PG, target resistance 5.90 ohms, runs 7-9, mean of 3): 9^1%

CN(C)CCC=C1c2ccccc2C=Cc2ccccc21 [Cyclobenzaprine, 3-(5H-Dibenzo[a,d]cyclohepten-5-ylidene)-N,N-dimethyl-1-propanamine]
MMAD [1, 14]: 0.330 microns and 0.329 microns and 0.343 microns and 0.333 microns and 0.336 microns and 0.256^2 microns | Material Balance [1, 14]: 92.04% and 91.03% and 93.48% and 99.10% and 93.99% and 61.98^2% | Throat Depositions [1, 14]: 3.45% and 3.39% and 5.55% and 2.59% and 3.09% and 4.89^2% | Wall Losses [1, 14]: 0.81% and 1.12% and 2.33% and 1.98% and 2.26% and 1.99^2% | Throat Depositions ([1]; cyclobenzaprine 2.0% in PG, target resistance 0.595 ohms, 1 actuation, listed as cyclobenzaprine): less than 4% | average MMAD ([1]; cyclobenzaprine 2.0% in PG, target resistance 0.595 ohms, approximately 71 J, runs 1-6 excluding run 3): approximately 0.33 microns | Avg. Emitted Dose per Actuation [2]: 836.16 µg | Avg. FPF [2]: 94.35 % of Emitted | average degradation [3]: less than 0.3% | Dose Capture ([4]; cyclobenzaprine 2.0% in PG, target resistance 0.595 ohms, about 73 J, 1 actuation, listed as cyclobenzaprine): > 95% | Dose Capture ([4]; cyclobenzaprine 2.0% in PG, target resistance 0.610 ohms, 1 actuation): 109.93%

Cc1nnc2n1-c1ccc(Cl)cc1C(c1ccccc1Cl)=NC2 [Triazolam, 8-chloro-6-(2-chlorophenyl)-1-methyl-4H-[1,2,4]triazolo[4,3-a][1,4]benzodiazepine]
MMAD [1, 15]: 0.847 microns and 0.642^3 microns | Material Balance [1, 15]: 74.08% and 108.22^3% | Wall Losses [1, 15]: 15.51^3% | Throat Deposition ([1]; triazolam 0.1% in PG, target resistance 0.590 ohms, approximately 70 J, runs 1 and 2): 33.14% and 39.28^3% | Throat Deposition ([1]; triazolam 0.1% in PG, target resistance 0.590 ohms, approximately 70 J, runs 1 and 2, listed as triazolam): greater than 30% | MMAD [1, 16]: 0.414^3 microns | Material Balance [1, 16]: 98.50^3% | Throat Deposition [1, 16]: 3.66^3% | Wall Losses [1, 16]: 6.69^3% | MMAD [1, 17]: 0.378^3 microns | Material Balance [1, 17]: 104.22^3% | Throat Deposition [1, 17]: 2.96^3% | Wall Losses [1, 17]: 11.04^3% | MMAD [1, 18]: 0.511^3 microns and 0.431^3 microns and 0.483 microns and 0.444^3 microns and 0.446^3 microns | Material Balance [1, 18]: 102.10^3% and 96.32^3% and 107.02% and 91.60^3% and 101.09^3% | Throat Deposition [1, 18]: 2.43^3% and 1.35^3% and 2.87% and 2.47^3% and 1.97^3% | Throat Deposition ([1]; triazolam 0.1% in PG, target resistance 0.605 ohms, runs 5-9, listed as triazolam): less than 3% | average MMAD ([1]; triazolam 0.1% in PG, target resistance 0.605 ohms, approximately 90 J, runs 5-9): approximately 0.46 microns | Avg. Emitted Dose per Actuation [2]: 46.46 µg | Avg. FPF [2]: 86.16 % of Emitted | Dose Capture ([4]; triazolam 0.1% in PG, target resistance 0.605 ohms, about 90 J, runs 10-14, mean of 15): 90^2% | Dose Capture ([4]; triazolam 0.1% in PG, target resistance 0.605 ohms, about 90 J, runs 10-14, mean of 15, listed as triazolam): 90% | Dose Capture ([4]; triazolam 0.1% in PG, target resistance 0.610 ohms): 86%

Cc1ccc(-c2nc3ccc(C)cn3c2CC(=O)N(C)C)cc1 [Zolpidem, N,N,6-Trimethyl-2-(4-methylphenyl)-imidazo[1,2-a]pyridine-3-acetamide]
MMAD [1, 19]: 0.464 microns | Material Balance [1, 19]: 64.51% | Throat Deposition [1, 19]: 5.36% | Wall Losses [1, 19]: 1.68% | MMAD [1, 20]: 0.481 microns and 0.459 microns and 0.420 microns and 0.421 microns and 0.404 microns and 0.431 microns | Material Balance [1, 20]: 100.06% and 90.77% and 97.74% and 95.83% and 101.56% and 93.04% | Throat Deposition [1, 20]: 3.97% and 0.12% and 0.62% and 1.27% and 0.21% and 1.95% | Wall Losses [1, 20]: 6.18% and 2.67% and 3.55% and 3.85% and 0.90% and 1.35% | average MMAD ([1]; zolpidem 0.2% in PG, target resistance 0.600 ohms, approximately 75 J, runs 5-8): approximately 0.45 microns | Avg. Emitted Dose per Actuation [2]: 92.55 µg | Avg. FPF [2]: 93.25 % of Emitted | Percent Degradation [5]: 0.26% and 0.02% and 0.00% and 0.03% and 0.16% | average degradation [5]: less than 0.1%
